In US20160120979A1, “METHOD OF APPLYING A COMPOSITION AND PHARMACEUTICAL COMPOSITION WITH A REGIMEN OF ADMINISTERING IT” (priority 2013, published 2016):
In brackets after ≈: the same amount, converted by molar mass. Read-outs that look alike come from different tables or passages of the source.

How the values were obtained:
[1] = test system: Staphylococcus aureus MU500; type: cell-based
Method: (§1) 15′000′000 multi-resistant bacteriae (0.050 ml of a McFarland of 1) were put on 40 mm diameter petri dishes. The petri dishes comprised MH agar with or without antibiotic.
(§2) The LED power during 0.02 ms was measured to be 0.63 W on a Thorlabs power sensor with a surface area of 2.2×2.2 mm representing a power of 13 mW/cm^2.
(§3) After the irradiation treatment according to experiment 12, remaining bacteria were allowed to proliferate and then were subject to the treatment according to experiment 12 again in order to test for possible new resistances to the treatment. The values in the following table are designated as in experiment 12: […]

[2] = test system: Acinetobacter; type: cell-based; settings: for D Acinetobacter (irradiation), replication, second treatment / C: Acinetobacter (no irradiation), replication, second treatment: remaining bacteria of experiment 12 proliferated and treated again
Method: as §1, §2, §3

[3] = test system: MU 50 multi-resistant bacteria; assay: Experiment 7: growth of MU50 after pulsed 400 nm photo-activation of antibiotics; type: cell-based, Staphylococcus aureus
Method: (§4) In Experiments 7 to 9 the effect of some exemplary photo-activated antibiotics is tested on two different multi resistant bacterial strains:
In Experiment 7 MU 50 multi-resistant bacteria as described above for Experiments 1 to 3 were tested.
(§5) G→Pulse ON 5 ms energy 0.05 J, OFF 45 ms during 10 minutes
(§6) The following experimental procedure are the same for experiments 7, 8 and 9: The bacterial cells were grown in Mueller Hinton Broth in the presence of an antibiotic at a concentration according to the table below until they reached turbidity of 1 according to the McFarland Standard (=3×10^8 bacteria/ml):
(§7) For each antibiotic two patterns of pulsed exposure for photo-activation were applied and a control without exposure to radiation. For example in experiment 7 and 8, pulse ON 10 ms energy 0.1 J, OFF 90 ms during 10 minutes and pulse ON 5 ms energy 0.05 J, OFF 45 ms i.e. in both treatments a 10% ON and a 90% OFF pattern and both for a duration of 10 minutes.
(§8) Incubation for 2 to up 36 hours at 37° C. until time=t2
(§9) At time=t2 one of the antibiotics is added to obtain the same concentration of antibiotic as during the original growth phase prior to time t1=0 as listed in the table above.
(§10) Incubation for further 2 to 4 hours at 37° C. in the presence of antibiotic until time=t3.
(§11) The absorbance value correlates to the colloidal effect and the number of bacteria in the sample.
(§12) These tables below list for each bacterial sample the difference in absorption values representing the difference in the number of bacteria present in each sample by subtracting the absorption values at time t4, which is the last measurement of the growth curve presented in FIGS. 3 to 5 from the last absorption value before the treatment with light at time t3. The values of A and G represent the effect of the treatment of the bacterial samples with two different light patterns for activation of the antibiotic as described above. The values of D correspond to the control samples without photo-activation of the antibiotic: […]

[4] = test system: Staphylococcus aureus MU500; assay: Experiment 12: replication on antibiotic agar after pulsed 400 nm irradiation; type: cell-based; settings: 24 hours incubation; for E: Staphylococcus aureus MU500 (no irradiation), replication: antibiotic 10 mg/l in MH agar; for F: Staphylococcus aureus MU500 (irradiation), replication: antibiotic 10 mg/l, 400 nm LED pulses 0.02 ms, 1 kHz, 10 minutes
Method: as §1, §2

[5] = test system: Pseudomonas aeruginosa; assay: as above; type: cell-based; settings: 24 hours incubation; for A: Pseudomonas aeruginosa (no irradiation), replication: antibiotic 10 mg/l in MH agar; for B: Pseudomonas aeruginosa (irradiation), replication: antibiotic 10 mg/l, 400 nm LED pulses 0.02 ms, 1 kHz, 10 minutes
Method: as §1
(§13) […]. The LED power during 0.02 ms was measured to be 0.63 W on a Thorlabs power sensor with a surface area of 2.2×2.2 mm representing a power of 13 mW/cm^2.

[6] = test system: Acinetobacter; assay: as above; type: cell-based; settings: 24 hours incubation; for C: Acinetobacter (no irradiation), replication: antibiotic 10 mg/l in MH agar; for D Acinetobacter (irradiation), replication: antibiotic 10 mg/l, 400 nm LED pulses 0.02 ms, 1 kHz, 10 minutes
Method: as §1, §13

[7] = test system: PA01 Pseudamonas aeruginosa MultiR genetically modified bacteria; assay: Experiment 8: growth of PA01 after pulsed 400 nm photo-activation of antibiotics; type: cell-based; settings: antibiotic concentration per the 12th table
Method: as §4
(§14) In Experiment 8 and 9 PA01 Pseudamonas aeruginosa MultiR genetically modified bacteria were tested. This PA01 strain is genetically modified with a quinolone pump and conferring resistance to antibiotics of the quinolone group of antibiotics.
as §5, §6, §7, §8, §9, §10, §11, §12

[8] = test system: MU50 multidrug-resistant Staphylococcus aureus strain (MRSA); assay: Minimum inhibitory concentration (MIC) on MU50; type: cell-based
Excerpt: For some of the experimental tests MU50 bacteria were used. MU50 is a multidrug-resistant Staphylococcus aureus strain (MRSA). MRSA are bacteria which have naturally evolved under antibiotic selection pressure and which are known to be resistant to antibiotics including penicillins (methicillin, dicloxacillin, nafcillin, oxacillin, etc.) and cephalosporins. MU50 is additionally resistant to macrolides, quinolones and aminoglycosides.
The minimum inhibitory concentration (MIC), which inhibits the visible growth of a microorganism after an overnight incubation was determined for the following antibiotics: […]

[9] = test system: PA01 Pseudamonas aeruginosa MultiR genetically modified bacteria; assay: Experiment 9: growth of PA01 after pulsed 400 nm photo-activation, shorter pulses; type: cell-based; settings: antibiotic concentration per the 13th table
Method: as §4, §14
A→Pulse ON 3 ms energy 0.03 J, OFF 27 ms during 10 minutes
G→Pulse ON 1 ms energy 0.01 J, OFF 9 ms during 10 minutes
as §6, §7, §8, §9, §10, §11, §12

[10] = remaining bacteria of experiment 12 proliferated and treated again
[11] = second treatment according to experiment 12
[12] = A: 400 nm LED pulse ON 10 ms energy 0.1 J, OFF 90 ms during 10 minutes, antibiotic concentration per the 11th table, approx. ten hours after t3
[13] = D: control no pulse, antibiotic concentration per the 11th table
[14] = G: 400 nm LED pulse ON 5 ms energy 0.05 J, OFF 45 ms during 10 minutes, antibiotic concentration per the 11th table
[15] = A: 400 nm LED pulse ON 10 ms energy 0.1 J, OFF 90 ms during 10 minutes
[16] = G: 400 nm LED pulse ON 5 ms energy 0.05 J, OFF 45 ms during 10 minutes
[17] = Staphylococcus aureus, MRSA, overnight incubation, read-out: MIC
[18] = A: 400 nm LED pulse ON 3 ms energy 0.03 J, OFF 27 ms during 10 minutes
[19] = G: 400 nm LED pulse ON 1 ms energy 0.01 J, OFF 9 ms during 10 minutes

| Compound | E: Staphylococcus aureus MU500 (no irradiation), replication [4] | F: Staphylococcus aureus MU500 (irradiation), replication [4] | A: Pseudomonas aeruginosa (no irradiation), replication [5] | B: Pseudomonas aeruginosa (irradiation), replication [5] | C: Acinetobacter (no irradiation), replication [6] | D Acinetobacter (irradiation), replication [6] | difference in absorption values (595-600 nm) between t4 and t3 [7, 15] | difference in absorption values (595-600 nm) between t4 and t3 ([7]; D: control no pulse) | difference in absorption values (595-600 nm) between t4 and t3 [7, 16] | MIC ([8]; overnight incubation) [µg/mL] | other results |
| --- | --- | --- | --- | --- | --- | --- | --- | --- | --- | --- | --- |
| C[C@H]1c2cccc(O)c2C(=O)C2=C(O)[C@]3(O)C(=O)C(C(N)=O)=C(O)[C@@H](N(C)C)[C@@H]3[C@@H](O)[C@@H]21 [Doxycycline] | R (Bacteria can replicate after the treatment) | NR (No replication) | R (Bacteria can replicate after the treatment) | NR (No replication) | R (Bacteria can replicate after the treatment) | NR (No replication) | −0.0365 | 0.0735 | 0.0181 |  | F: Staphylococcus aureus MU500 (irradiation), replication, second treatment ([1]; remaining bacteria of experiment 12 proliferated and treated again, irradiation): NR (No replication); E: Staphylococcus aureus MU500 (no irradiation), replication, second treatment [1, 10]: R (Bacteria can replicate after the treatment); resistance to the treatment of the second generation resistant bacteria [1, 11]: no resistance to the treatment; D Acinetobacter (irradiation), replication, second treatment [2]: NR (No replication); C: Acinetobacter (no irradiation), replication, second treatment [2]: R (Bacteria can replicate after the treatment); resistance to the treatment of the second generation resistant bacteria [2, 11]: no resistance to the treatment; difference in absorption values (595-600 nm) between t4 and t3 [3, 12]: −0.083; difference in absorption values (595-600 nm) between t4 and t3 [3, 13]: 0.0072; difference in absorption values (595-600 nm) between t4 and t3 [3, 14]: −0.0429 |
| O=C(O)c1cn(C2CC2)c2cc(N3CCNCC3)c(F)cc2c1=O [Ciprofloxacin] | R (Bacteria can replicate after the treatment) |  | R (Bacteria can replicate after the treatment) | NR (No replication) | R (Bacteria can replicate after the treatment) | NR (No replication) |  |  |  |  | E: Staphylococcus aureus MU500 (no irradiation), replication, second treatment [1, 10]: R (Bacteria can replicate after the treatment); D Acinetobacter (irradiation), replication, second treatment [2]: NR (No replication); C: Acinetobacter (no irradiation), replication, second treatment [2]: R (Bacteria can replicate after the treatment); MIC [8, 17]: > 16 µg/mL |
| CC[C@H]1OC(=O)[C@H](C)[C@@H](O[C@H]2C[C@@](C)(OC)[C@@H](O)[C@H](C)O2)[C@H](C)[C@@H](O[C@@H]2O[C@H](C)C[C@H](N(C)C)[C@H]2O)[C@](C)(OC)C[C@@H](C)C(=O)[C@H](C)[C@@H](O)[C@]1(C)O [Clarithromycin] | R (Bacteria can replicate after the treatment) | R (Bacteria can replicate after the treatment) | R (Bacteria can replicate after the treatment) | PR (Bacteria can replicate partially) | R (Bacteria can replicate after the treatment) | R (Bacteria can replicate after the treatment) | 0.0106 | 0.1041 | −0.0396 |  | difference in absorption values (595-600 nm) between t4 and t3 [3]: 0.0956; difference in absorption values (595-600 nm) between t4 and t3 ([3]; 10 min): −0.1383; difference in absorption values (595-600 nm) between t4 and t3 ([3]; 10 h): −0.1249; difference in absorption values (595-600 nm) between t4 and t3 [9, 18]: −0.1708; difference in absorption values (595-600 nm) between t4 and t3 ([9]; D: control no pulse): −0.0024; difference in absorption values (595-600 nm) between t4 and t3 [9, 19]: −0.0994 |
| Teicopanin |  |  |  |  |  |  |  |  |  | 8 |  |
| CO[C@H]1/C=C/O[C@@]2(C)Oc3c(C)c(O)c4c(O)c(c(/C=N/N5CCN(C)CC5)c(O)c4c3C2=O)NC(=O)/C(C)=C\C=C\[C@H](C)[C@H](O)[C@@H](C)[C@@H](O)[C@@H](C)[C@H](OC(C)=O)[C@@H]1C [Rifampicin] |  |  |  |  |  |  | 0.0137 | 0.0679 | −0.0678 |  | difference in absorption values (595-600 nm) between t4 and t3 [3]: −0.0542; difference in absorption values (595-600 nm) between t4 and t3 ([3]; 10 min): −0.0914; difference in absorption values (595-600 nm) between t4 and t3 ([3]; 10 h): −0.1027; difference in absorption values (595-600 nm) between t4 and t3 [9, 18]: −0.0808; difference in absorption values (595-600 nm) between t4 and t3 ([9]; D: control no pulse): 0.0562; difference in absorption values (595-600 nm) between t4 and t3 [9, 19]: −0.0196 |
| Gentamicin |  |  |  |  |  |  |  |  |  | >16 |  |
| CN[C@H](CC(C)C)C(=O)N[C@H]1C(=O)N[C@@H](CC(N)=O)C(=O)N[C@H]2C(=O)N[C@H]3C(=O)N[C@H](C(=O)N[C@H](C(=O)O)c4cc(O)cc(O)c4-c4cc3ccc4O)[C@H](O)c3ccc(c(Cl)c3)Oc3cc2cc(c3O[C@@H]2O[C@H](CO)[C@@H](O)[C@H](O)[C@H]2O[C@H]2C[C@](C)(N)[C@H](O)[C@H](C)O2)Oc2ccc(cc2Cl)[C@H]1O [Vancomycin] |  |  |  |  |  |  |  |  |  |  | MIC ([8]; Staphylococcus aureus, MRSA): 8 µg/mL (≈ 5.52 µM) |
| Cc1onc(-c2ccccc2)c1C(=O)N[C@@H]1C(=O)N2[C@@H]1SC(C)(C)[C@@H]2C(=O)O [Oxacillin] |  |  |  |  |  |  |  |  |  |  | MIC [8, 17]: > 32 µg/mL |
| Penicillin |  |  |  |  |  |  |  |  |  | >8 |  |
| CCn1cc(C(=O)O)c(=O)c2cc(F)c(N3CCNCC3)cc21 [Norfloxacin] | R (Bacteria can replicate after the treatment) | PR (Bacteria can replicate partially) | R (Bacteria can replicate after the treatment) | NR (No replication) | R (Bacteria can replicate after the treatment) | NR (No replication) | −0.0491 | 0.0039 | −0.1879 |  | difference in absorption values (595-600 nm) between t4 and t3 [3, 12]: −0.1198; difference in absorption values (595-600 nm) between t4 and t3 [3, 13]: −0.1119; difference in absorption values (595-600 nm) between t4 and t3 [3, 14]: −0.0589 |
